# Where two headings read alike, the source gives them in different places.
# What was measured:
# [1] = system: NUGC3 p53 Y220C; assay: Cell Proliferation Assay (CellTiter-Glo, CTG), NUGC3 p53 Y220C; assay type: cell-based; conditions: Homo sapiens, NUGC-3, 120 h, NUGC3 cells, 5 days, CellTiter-Glo
# Outline: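 Tet-One inducible p53 Y220C or R273H constructs were stably introduced into NCI-H1299 by lentiviral transduction; NUGC3 was used as is. Cells (250-500 per well) were exposed to compound for 5 days, then CellTiter-Glo was added for 10 min at room temperature and IC50 was calculated from luminescence.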
# [2] = system: H1299 p53 R273H; assay: Cell Proliferation Assay (CellTiter-Glo, CTG), H1299 p53 R273H (NClH1299-inducible p53 R273H); assay type: cell-based; conditions: Homo sapiens, NCI-H1299, 120 h, NClH1299-inducible p53 R273H cells, 5 days, CellTiter-Glo
# Outline: (§1)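 Cells seeded at 250-500 per well and exposed to compound for 5 days. Viability read by CellTiter-Glo luminescence after 10 min at room temperature; IC50 calculated. H1299 lines carry Tet-One inducible p53 mutant constructs introduced by lentiviral transduction.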
# [3] = molecular target: T1, p53 Y220C mutant protein (amino acid residues 94-293) (Homo sapiens, UniProt P04637, Y220C); assay: Thermal Shift Assay (TSA), dTM; assay type: binding; conditions: p53 Y220C, read-out: TSA P53 Y220C dTM; for ΔTm at 10 µM: 10 uM compound; for ΔTm at 100 µM: 100 uM compound
# T1 construct: p53 Y220C mutant protein (amino acid residues 94-293)
# Outline: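 Sypro Orange melt (30→50 °C, 0.03 °C/s) with TM taken from a Boltzmann two-state fit. Protein (residues 94-293) at 5 μM was pre-incubated 3 h at 20 °C with compound at 10 μM or 100 μM in pH 7.4 HEPES/NaCl buffer containing 0.01% Pluronic F-127 and 1% DMSO.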
# [4] = molecular target: T1, p53 Y220C mutant protein (amino acid residues 94-293); assay: Surface Plasmon Resonance (SPR) assay, Kd_kinetic; assay type: binding; conditions: read-out: SPR P53 Y220C KD kinetic
# Outline: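 Surface plasmon resonance is run at 16 or 20 °C in 50 mM Tris pH 7.5 containing 100 mM NaCl, 1 mM DTT, 0.01% Brij35, 0.05% Tween-20 and 1% DMSO. Association and dissociation data are fitted to a 1:1 model.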
# [5] = molecular target: p53 Y220C (Homo sapiens, UniProt P04637, Y220C); assay: Luciferase Reporter Assay (Luc), p53 response element, NClH1299 cells with inducible p53 Y220C; assay type: cell-based; conditions: luciferase reporter, NClH1299 inducible p53 Y220C, 6 hour; for AC50: read-out: Luc P53 Y220C AC50
# Outline: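 Cells were seeded at 5,000 per well and induced with 0.5 ug/mL doxycycline for 24 hours, then exposed to compound for 6 hours. One-Glo reagent was added, plates shaken 5 minutes at room temperature, and luminescence read immediately.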
# [6] = system: H1299 p53 Y220C; assay: Cell Proliferation Assay (CellTiter-Glo, CTG), H1299 p53 Y220C (NClH1299-inducible p53 Y220C); assay type: cell-based; conditions: Homo sapiens, NCI-H1299, 120 h, NClH1299-inducible p53 Y220C cells, 5 days, CellTiter-Glo
# Outline: as §1
SMILES,IC50 [2] [nM],ΔTm at 10 µM [3] [°C],"Kd ([4]; SPR, p53 Y220C) [nM]",AC50 [5] [nM],Emax [5] [%],IC50 [6] [nM],Kd [4] [nM],ΔTm at 100 µM [3] [°C],IC50 [1] [nM]
CNC(=O)c1cnc(OC)c(NCC#Cc2cc3c(N[C@@H]4CCNC[C@@H]4F)nccn3c2SC(F)(F)F)c1 [Example 292],≥ 10000,≥ 10,< 10,< 750,> 90,< 750,,,< 750
CNC(=O)c1ccc(C)c(NCC#Cc2cc3c(N[C@@H]4CCN(C)C[C@@H]4F)nccn3c2SC(F)(F)F)c1 [Example 294],≥ 10000,≥ 10,< 10,< 750,> 90,< 750,,,< 750
CNC(=O)c1ccc(NCC#Cc2cc3c(N[C@@H]4CCNC[C@@H]4F)nccn3c2SC(F)(F)F)c(OC)c1 [Example 295],8000 to 10000,≥ 10,< 10,< 750,> 90,< 750,,,< 750
CNC(=O)c1ccc(NCC#Cc2cc3c(N[C@@H]4CCN(C)C[C@@H]4F)nccn3c2SC(F)(F)F)cc1 [Example 297],≥ 10000,≥ 10,,< 750,> 90,< 750,< 10,,< 750
CNC(=O)c1ccc(C#N)c(NCC#Cc2cc3c(N[C@@H]4CCN(C)C[C@@H]4F)nccn3c2SC(F)(F)F)c1 [Example 300],≥ 10000,≥ 10,< 10,< 750,> 90,< 750,,,< 750
CCNC(=O)c1ccc(NCC#Cc2cc3c(N[C@@H]4CCN(C)C[C@@H]4F)nccn3c2SC(F)(F)F)c(OC)c1 [Example 306],5000 to 8000,≥ 10,< 10,< 750,> 90,< 750,,,< 750
"COc1cc2c[nH]nc2cc1NCC#Cc1nc2c(N[C@@H]3CCN(C)C[C@@H]3F)cccn2c1SC(F)(F)F [Example 308, N-[3-(8-{[(3S,4R)-3-fluoro-1-methylpiperidin-4-yl]amino}-3-[(trifluoromethyl)sulfanyl]imidazo[1,2-a]pyridin-2-yl)prop-2-yn-1-yl]-5-methoxy-2H-indazol-6-amine]",< 5000,≥ 10,< 10,< 750,80 to 90,< 750,,≥ 10,< 750
CCNC(=O)c1ccc(OC)c(NCC#Cc2nc3c(N[C@@H]4CCN(C)C[C@@H]4F)nccn3c2SC(F)(F)F)c1 [Example 309],< 5000,≥ 10,< 10,< 750,70 to 80,< 750,,,< 750
CCNC(=O)c1ccc(NCC#Cc2nn3c(N[C@@H]4CCN(C)C[C@@H]4F)cccc3c2SC(F)F)c(OC)c1 [Example 317],≥ 10000,≥ 10,< 10,< 750,80 to 90,< 750,,,< 750
CCNC(=O)c1ccc(OC)c(NCC#Cc2nn3c(N[C@@H]4CCN(C)C[C@@H]4F)cccc3c2SC(F)F)c1 [Example 318],5000 to 8000,≥ 10,< 10,< 750,80 to 90,< 750,,,< 750
CNC(=O)c1ccc(OC)c(NCC#Cc2cc3c(N[C@@H]4CCN(C)C[C@@H]4F)nccn3c2SC(F)F)c1 [Example 321],≥ 10000,≥ 10,< 10,< 750,> 90,< 750,,,< 750
CNC(=O)c1cnc(OC)c(NCC#Cc2cc3c(N[C@@H]4CCN(C)C[C@@H]4F)nccn3c2SC(F)F)c1 [Example 327],≥ 10000,≥ 10,< 10,< 750,> 90,< 750,,,< 750
CNC(=O)c1ccc(OC2COC2)c(NCC#Cc2cc3c(N[C@@H]4CCN(C)C[C@@H]4F)nccn3c2SC(F)(F)F)c1 [Example 336],< 5000,≥ 10,< 10,< 750,> 90,< 750,,,< 750
CNC(=O)c1cnc(OC)c(NCC#Cc2cc3c(N[C@@H]4CN(C)C[C@@H]4F)cccn3c2SC(F)(F)F)c1 [Example 338],5000 to 8000,≥ 10,< 10,< 750,> 90,< 750,,,< 750
COc1cc(S(C)(=O)=O)ccc1NCC#Cc1cc2c(N[C@@H]3CN(C)C[C@@H]3F)cccn2c1SC(F)(F)F [Example 339],5000 to 8000,≥ 10,< 10,< 750,80 to 90,< 750,,,< 750
CNC(=O)c1ccc(OC)c(NCC#Cc2cc3c(N[C@@H]4CCNC[C@@H]4F)nccn3c2SC(F)(F)F)n1 [Example 340],≥ 10000,≥ 10,< 10,< 750,80 to 90,< 750,,,< 750
COc1cc(S(C)(=O)=O)ccc1NCC#Cc1cc2c(N[C@@H]3CCN(C)C[C@@H]3F)cccn2c1SC(F)(F)F [Example 341],5000 to 8000,≥ 10,< 10,< 750,> 90,< 750,,,< 750

# Now from value to compound, other results behind:
IC50 [2] [nM],ΔTm at 10 µM [3] [°C],"Kd ([4]; SPR, p53 Y220C) [nM]",AC50 [5] [nM],Emax [5] [%],IC50 [6] [nM],Kd [4] [nM],ΔTm at 100 µM [3] [°C],SMILES,IC50 [1] [nM]
≥ 10000,≥ 10,< 10,< 750,80 to 90,< 750,,,CCNC(=O)c1cnc(OC)c(NCC#Cc2nc3c(N[C@@H]4CCN(C)C[C@@H]4F)cccn3c2SC(F)(F)F)c1 [Example 293],< 750
≥ 10000,≥ 10,< 10,< 750,80 to 90,< 750,,,CNC(=O)c1ccc(OC)c(NCC#Cc2nc3c(N[C@@H]4CCN(CCOC)C[C@@H]4F)cccn3c2SC(F)(F)F)c1 [Example 296],< 750
≥ 10000,≥ 10,< 10,< 750,> 90,< 750,,,CNC(=O)c1cc(F)c(OC)c(NCC#Cc2nc3c(N[C@@H]4CCN(C)C[C@@H]4F)cccn3c2SC(F)(F)F)c1 [Example 303],< 750
< 5000,≥ 10,< 10,< 750,> 90,< 750,,,CNC(=O)c1cc(F)c(OC)c(NCC#Cc2nc3c(N[C@@H]4CCNC[C@@H]4F)cccn3c2SC(F)(F)F)c1 [Example 304],< 750
≥ 10000,≥ 10,< 10,< 750,80 to 90,< 750,,,CNC(=O)c1ccc(OC)c(NCC#Cc2nc3c(N[C@@H]4CCNC[C@@H]4F)nccn3c2SC(F)(F)F)c1 [Example 307],< 750
5000 to 8000,≥ 10,< 10,< 750,> 90,< 750,,,CNC(=O)c1ccc(Cl)c(NCC#Cc2nc3c(N[C@@H]4CCN(C)C[C@@H]4F)cccn3c2SC(F)(F)F)c1 [Example 312],< 750
≥ 10000,≥ 10,< 10,< 750,> 90,< 750,,,CNC(=O)c1ccc(NCC#Cc2nc3c(N[C@@H]4CCNC[C@@H]4F)nccn3c2SC(F)(F)F)c(OC)c1 [Example 319],< 750
5000 to 8000,≥ 10,< 10,< 750,80 to 90,< 750,,≥ 10,"CNC(=O)c1ccc(NCC#Cc2nc3c(N[C@@H]4C[C@H]5CC[C@H](N5)[C@@H]4F)cccn3c2SC(F)(F)F)c(OC)c1 [Example 324, 4-{[3-(8-{[(1S,2S,3R,5R)-2-fluoro-8-azabicyclo[3.2.1]octan-3-yl]amino}-3-[(trifluoromethyl)sulfanyl]imidazo[1,2-a]pyridin-2-yl)prop-2-yn-1-yl]amino}-3-methoxy-N-methylbenzamide]",< 750

# From patent publication US20260374766A1, “METHODS FOR TREATING CANCER” (Antares Therapeutics, Inc., priority 2022, published 2026)
